According to patent US20180000085A1, “USE OF PICOLINAMIDE COMPOUNDS WITH FUNGICIDAL ACTIVITY” (DOW AGROSCIENCES LLC, priority 2014, published 2018):

Experiments:
Puccinia triticina = assay: Wheat brown rust (PUCCRT) disease control on wheat seedlings; format: in vivo; parameters: key to PUCCRT 3DC, HV activity at 100 ppm (% control rating) / PUCCRT disease control, 3DC / PUCCRT 1DP disease control rating, HV activity / PUCCRT 3DC disease control rating, HV activity / PUCCRT 3DC, LV activity at 125.1 g/H (% Control rating) / PUCCRT 1DP, LV activity at 125.1 g/H (% Control rating) / PUCCRT 3DC disease control rating, LV activity at 125.1 g/H / PUCCRT 1DP disease control rating, LV activity at 125.1 g/H / PUCCRT 3DC disease control rating, HV activity at 100 ppm / PUCCRT 1DP disease control rating, HV activity at 100 ppm / HV activity at 100 ppm PUCCRT 3DC (disease control rating) / LV activity at 125.1 g/H PUCCRT 1DP (disease control rating) / LV activity at 125.1 g/H PUCCRT 3DC (disease control rating): A: > 80; B: ≤ 80; C: Not Tested; D: No Activity Observed in the Reported Assay; conditions: for PUCCRT 1DP disease control rating, LV activity at 125.1 g/H: 1 day protectant; for PUCCRT 3DC disease control rating, LV activity at 125.1 g/H: 3 day curative; for PUCCRT 1DP disease control rating, HV activity / PUCCRT 3DC disease control rating, HV activity: HV application at 100 ppm
Zymoseptoria tritici = assay: Leaf blotch of wheat (SEPTTR) disease control on wheat seedlings; format: in vivo; parameters: key to SEPTTR 1DP, HV activity at 100 ppm (% control rating) / SEPTTR 3DC, HV activity at 100 ppm (% control rating) / SEPTTR disease control, 1DP / SEPTTR disease control, 3DC / SEPTTR 1DP disease control rating, HV activity / SEPTTR 3DC disease control rating, HV activity / SEPTTR 3DC, LV activity at 125.1 g/H (% Control rating) / SEPTTR 1DP, LV activity at 125.1 g/H (% Control rating) / SEPTTR 1DP disease control rating, LV activity at 125.1 g/H / SEPTTR 3DC disease control rating, LV activity at 125.1 g/H / SEPTTR 3DC disease control rating, HV activity at 100 ppm / SEPTTR 1DP disease control rating, HV activity at 100 ppm / HV activity at 100 ppm SEPTTR 3DC (disease control rating) / HV activity at 100 ppm SEPTTR 1DP (disease control rating) / LV activity at 125.1 g/H SEPTTR 1DP (disease control rating) / LV activity at 125.1 g/H SEPTTR 3DC (disease control rating): A: > 80; B: ≤ 80; C: Not Tested; D: No Activity Observed in the Reported Assay; conditions: for SEPTTR 1DP disease control rating, LV activity at 125.1 g/H: 1 day protectant; for SEPTTR 3DC disease control rating, LV activity at 125.1 g/H: 3 day curative; for SEPTTR 1DP disease control rating, HV activity / SEPTTR 3DC disease control rating, HV activity: HV application at 100 ppm
[1] = low volume application, 125.1 g/H
[2] = 1 Day Protectant, wheat brown rust
[3] = 3 Day Curative, wheat brown rust
[4] = 1 Day Protectant, wheat leaf blotch
[5] = 3 Day Curative, wheat leaf blotch
[6] = low volume application, 125.1 g/H, 1 Day Protectant
[7] = low volume application, 125.1 g/H, 3 Day Curative

Compound | PUCCRT 1DP disease control rating, LV activity at 125.1 g/H (Puccinia triticina; [1]) | PUCCRT 3DC disease control rating, LV activity at 125.1 g/H (Puccinia triticina; [1]) | SEPTTR 1DP disease control rating, LV activity at 125.1 g/H (Zymoseptoria tritici; [1]) | SEPTTR 3DC disease control rating, LV activity at 125.1 g/H (Zymoseptoria tritici; [1]) | PUCCRT 1DP disease control rating, HV activity (Puccinia triticina; [2]) | PUCCRT 3DC disease control rating, HV activity (Puccinia triticina; [3]) | SEPTTR 1DP disease control rating, HV activity (Zymoseptoria tritici; [4]) | SEPTTR 3DC disease control rating, HV activity (Zymoseptoria tritici; [5]) | PUCCRT 1DP, LV activity at 125.1 g/H (% Control rating) (Puccinia triticina; [6]) | PUCCRT 3DC, LV activity at 125.1 g/H (% Control rating) (Puccinia triticina; [7]) | SEPTTR 1DP, LV activity at 125.1 g/H (% Control rating) (Zymoseptoria tritici; [6]) | SEPTTR 3DC, LV activity at 125.1 g/H (% Control rating) (Zymoseptoria tritici; [7]) | further results
CCC(CC)C(Oc1ccc(Cl)cc1Cl)C(C)OC(=O)C(CC(C)C)NC(=O)c1nccc(OC)c1OC(C)=O (stereo not shown) [Cmpd 689] | D | D | D | B (≤ 80) | – | – | – | – | – | – | – | – | –
CCCC(Oc1ccccc1)C(C)OC(=O)C(C)NC(=O)c1nccc(OC)c1O (stereo not shown) [Cmpd 438] | – | – | – | – | A (> 80) | A (> 80) | A (> 80) | A (> 80) | – | – | – | – | –
CCC(CC)[C@H](Oc1cc(F)ccc1F)[C@H](C)OC(=O)[C@H](C)NC(=O)c1nccc(OC)c1OCOC(C)=O [Cmpd 671] | A (> 80) | A (> 80) | D | B (≤ 80) | – | – | – | – | – | – | – | – | –
CCC(CC)C(Oc1ccc(Cl)cc1Cl)C(C)OC(=O)C(C)NC(=O)c1nccc(OC)c1O (stereo not shown) [Cmpd 381] | – | – | – | – | D | D | D | D | – | – | – | – | –
COc1ccnc(C(=O)NC(C)C(=O)OC(C)C(OCC2CC2)C2CCCC2)c1OCOC(C)=O (stereo not shown) [Cmpd 914] | A (> 80) | A (> 80) | B (≤ 80) | B (≤ 80) | – | – | – | – | – | – | – | – | –
COc1ccnc(C(=O)N[C@H](C)C(=O)O[C@H](C)[C@@H](Oc2ccccc2)C(C)C)c1O [Cmpd 351] | – | – | – | – | D | D | B (≤ 80) | D | – | – | – | – | –
CC[C@H](C)[C@H](NC(=O)c1nccc(OC)c1OCOC(C)=O)C(=O)O[C@@H](C)[C@H](Oc1ccc(C(F)(F)F)cc1)C(C)C [Cmpd 620] | – | – | – | – | – | – | – | – | B (≤ 80) | B (≤ 80) | D | B (≤ 80) | –
CC[C@H](Cc1ccc(OC)cc1)[C@@H](Oc1ccccc1)[C@H](C)OC(=O)[C@H](C)NC(=O)c1nccc(OC)c1OC(=O)C(C)C [Cmpd 472] | – | – | – | – | – | – | – | – | A (> 80) | B (≤ 80) | A (> 80) | A (> 80) | –
COc1ccnc(C(=O)N[C@@H](C)C(=O)O[C@@H](C)[C@H](Oc2ccc(Cl)cc2Cl)C(C)C)c1OCOC(=O)C(C)C [Cmpd 572] | – | – | – | – | – | – | – | – | A (> 80) | A (> 80) | B (≤ 80) | B (≤ 80) | –
COc1cc(O[C@@H]([C@H](C)OC(=O)[C@H](C)NC(=O)c2nccc(OC)c2OC(C)=O)C(C)(C)C)ccc1Cl [Cmpd 1070] | – | – | – | – | – | – | – | – | – | – | – | – | LV activity at 125.1 g/H PUCCRT 1DP (disease control rating) (Puccinia triticina; low volume application, 125.1 g/H, 1 Day Protectant, wheat brown rust): A (> 80); LV activity at 125.1 g/H PUCCRT 3DC (disease control rating) (Puccinia triticina; low volume application, 125.1 g/H, 3 Day Curative, wheat brown rust): A (> 80); LV activity at 125.1 g/H SEPTTR 1DP (disease control rating) (Zymoseptoria tritici; low volume application, 125.1 g/H, 1 Day Protectant, wheat leaf blotch): B (≤ 80); LV activity at 125.1 g/H SEPTTR 3DC (disease control rating) (Zymoseptoria tritici; low volume application, 125.1 g/H, 3 Day Curative, wheat leaf blotch): D
